Data as given in PubChem BioAssay AID2305 (GlaxoSmithKline (GSK), 2010).
“And” between values parts separate entries of the source, which are not always exact repeats. Equal values may be shown once.

Test system: P. falciparum 3D7 growth, pLDH absorbance
Assay: P. falciparum 3D7 growth inhibition, dose response, strain 3D7 (AID 2305)

SMILES	IC50
O=C(NCCN1CCCCC1)c1ccc(CNC(=O)c2ccc(O)c(-c3ccc(Cl)c(Cl)c3)c2)cc1	900 nM
COc1ccc(CNC2Cc3ccccc3C2)cc1-c1ccc(S(=O)(=O)NCCN2CCCC2)s1	190 nM
c1cncc(CCNCc2ccc(-c3ccc(CNC4Cc5ccccc5C4)cc3)cc2)c1	1090 nM
Cc1cccc2[nH]c(-c3cccc(-c4ccc(NC(=O)COC(C)C)cc4)c3)nc12	1190 nM
c1ccn2c(Sc3ncnc4sccc34)ncc2c1	660 nM
CCN1CCC(N(Cc2ccc(-c3ccc(C(F)(F)F)cc3)cc2)C(=O)Cn2c(SCc3ccc(F)cc3)nc(=O)c3c2CCC3)CC1	990 nM
CC(Cc1ccc(OCCN2CCN(c3cccc(Cl)c3)CC2)cc1)NCC(O)c1cccc(C(F)(F)F)c1 (centres undefined)	600 nM
CC(C)NC(=O)Cn1cc(C2CCN(CC3CCN(C(=O)/C=C/c4ccc(Cl)c(Cl)c4)CC3)CC2)c2ccccc21	1030 nM
NC1=NC(=O)C(=Cc2cn(-c3ccccc3)nc2-c2cccc(S(=O)(=O)N3CCCC3)c2)S1	1140 nM
COc1ccc(-c2ccc(NC(=O)c3ccc(F)cc3)cc2)cc1CNC(C)C	760 nM
Cc1nc(-c2nc(NCCc3ccncc3)ncc2-c2ccsc2)sc1C	300 nM
CC(C)[C@H](NC(=O)c1ccc(O)c(-c2ccc(Cl)c(Cl)c2)c1)C(=O)NC1CCCCCC1	220 nM
CCN1CCN(Cc2ccc(NC(=O)c3cc4ccc5cccnc5c4[nH]3)cc2)CC1	850 nM
COc1ccccc1NC(=O)Nc1ccc(-c2ccc(-c3nc4ccc(C(F)(F)F)cc4[nH]3)cc2)cc1	540 nM
O=C(c1cc2c(s1)-c1cccc(Cl)c1SC2)N1CCN(c2ccncc2)CC1	1010 nM
Cc1cccc2[nH]c(-c3ccc(-c4ccc(CN5CCN(CCO)CC5)cc4)cc3)nc12	600 nM
CCCN1CCN(c2cc(NCC)c3c4c(onc24)-c2ccccc2C3=O)CC1	1060 nM
O=c1ccc2ccc(F)c3c2n1CC3CN1CCC(NCc2ccc(-c3cccc(Cl)c3)nc2)CC1 (centres undefined)	990 nM
CNC(=O)c1cnc(Nc2ccc(N3CCN(C)CC3)cc2)nc1Nc1cccc(OC(C)C)c1	150 nM
CCN1CCN(c2cc(C)c3cc(NC(=O)C=Cc4cccc(OC)c4OC)ccc3n2)CC1	700 nM
Cc1ccc(CN=C(N)NC(=O)c2nc(Cl)c(NCc3ccc(Cl)cc3)nc2N)c(C)c1	170 nM
COc1ccc2cc(-c3nc(-c4c(Cl)cccc4Cl)[nH]c3-c3ccnc(NCCCN4CCCCC4C)c3)ccc2c1 (centres undefined)	950 nM
Cc1ccnc(-n2c(C)cc(C=C3SC(=Nc4ccccc4)N(Cc4ccco4)C3=O)c2C)c1	240 nM
COc1ccc(OC(C)CNC(=O)c2cc([N+](=O)[O-])ccc2-c2ccc(OC)cc2)cc1 (centres undefined)	1150 nM

SMILES	IC50
O=C(C=Cc1ccc(Cl)c(Cl)c1)NCCCCCN1CCC(CCCNC(=O)/C=C/c2ccccc2)CC1	590 nM
C=C(C)CSc1nc2c(c(=O)n1Cc1ccco1)C1(CCCCC1)Cc1ccccc1-2	1000 nM
COc1ccc(C=NNc2ccnc3ccccc23)c2ccccc12	700 nM
CN1CC=C(c2c[nH]c3ccc(OC(=O)c4ccccc4)cc23)C1	800 nM
Cc1c(S(=O)(=O)Nc2ccc3nccc(N4C[C@@H](C)N[C@@H](C)C4)c3c2)sc2ccc(Cl)cc12	1020 nM
CC(C)c1ccc(OCC(O)CN(CCN2CCOCC2)C(=O)Nc2ccc(Br)cc2)cc1 (centres undefined)	720 nM
C=C[C@]1(C)C[C@@H](OC(=O)c2cncn(COC)c2=O)[C@]2(C)[C@H](C)CC[C@]3(CCC(=O)[C@H]32)[C@@H](C)[C@@H]1O	880 nM
O=C(/C=C/c1ccc(Cl)c(Cl)c1)NCCCCCN1CCC(NC(=S)Nc2ccc(Cl)cc2)CC1	440 nM
Nc1ccncc1C(=O)NCCCCN1CCN(c2nsc3ccccc23)CC1	800 nM
NC(=O)c1c(Cl)nc2ccccc2c1Cl	960 nM
O=c1[nH]c(NCCCNCc2cc3c(Cl)cc(Cl)cc3[nH]2)nc2ccccc12	990 nM
O=C(NCCc1ccccc1)c1cc(-c2cccnc2)cnc1NCC1CC1	850 nM
CC(C)n1ncc2c(C(=O)N3CCCC4CCCCC43)cc(C3CC3)nc21 (centres undefined)	680 nM
O=C(Nc1ccc(Cl)cc1)c1ccc(CN2CCCN(Cc3ccc(F)cc3)CC2)cc1	970 nM
CCc1ccc(-n2c(=O)c3cccnc3n2CC(=O)NC2CCCC2)cc1	920 nM
Nc1nc2c(c(=O)[nH]1)CN(S(=O)(=O)c1ccc(C(=O)N[C@@H](CCC(=O)O)C(=O)O)cc1)CC2	150 nM
Cc1ccc2nc(C)cc(NN=CC=Cc3ccccc3)c2c1	840 nM
O=C(Nc1cccc(-c2nn3ccccc3c2-c2ccnc(Nc3cccc(F)c3)n2)c1)c1c(F)ccc(F)c1Cl	1140 nM
CCN(CCCN1CCCCC1)c1cc(C)nc(Nc2ccc(Oc3ccccc3)cc2)n1	300 nM
Cc1cc(C(=O)Nc2ccc3c(c2)CCN3C2CCN(Cc3cccc4cc[nH]c34)C2)no1 (centres undefined)	190 nM
COC(=O)c1c(NC(=O)c2cccc(C(F)(F)F)c2)sc2c1CCN(Cc1ccccc1)C2	1340 nM
O=S(=O)(NCCN1CCCC1)c1cccc(-c2ccc(CNC3Cc4ccccc4C3)cc2)c1	660 nM
Cc1cc(C)c2cc(CNCCCNc3nc4ccccc4[nH]3)[nH]c2c1	770 nM
O=C(NC1CCCCN(Cc2ccccc2O)C1)c1ccc(-c2ccccc2)cc1 (centres undefined)	760 nM

SMILES	IC50
NC(N)=NC(=O)Nc1cc(Cl)c(Cl)c(Cl)c1	590 nM
Cc1cnc(C(=O)Nc2cccc(-c3csc(-c4nc5ccccc5[nH]4)c3)c2)cn1	270 nM
Cc1cccc(C(=O)Nc2ccnc(N(C)CCCN(C)Cc3cccc(O)c3)c2)c1	970 nM
CC(C)(C)c1ccc(S(=O)(=O)Nc2cc(Cl)ccc2Cn2ccc(N3CCNCC3)nc2=O)cc1	830 nM
CN1CCN(CCCCCCNc2c3ccccc3nc3ccccc23)CC1	720 nM
O=C(/C=C/c1cccc(Cl)c1)N1CCC(C(O)CN2CCC3(CC2)CN(C(=O)/C=C/c2cccc(Cl)c2)c2ccccc23)CC1 (centres undefined)	890 nM
Cc1cccc2[nH]c(-c3ccc(-c4cccc(CN5CC(C)OC(C)C5)c4)s3)nc12 (centres undefined)	760 nM
CN1CCCC(CN2CCN(Cc3ccc(-c4ccc(-c5nc6ccc(F)cc6[nH]5)cc4)cc3)CC2)C1 (centres undefined)	120 nM
Cc1ccc(-c2nc3ccc(C(=O)NC4CCC(N5CCCc6ccc(C#N)cc6C5)CC4)cc3[nH]2)cc1 (centres undefined)	1360 nM
O=C(C=Cc1cc([N+](=O)[O-])ccc1Cl)N1CCC(CCN2CCC(c3c[nH]c4ccccc34)CC2)CC1	740 nM
COc1ccc(C(=O)Nc2ccc(-c3nc4ccc(C)cc4[nH]3)cc2)cc1OC	760 nM
CCOP(=O)(OCC)c1ccc(OC)c(-c2ccc[nH]2)c1	1190 nM
CN1CCN(CCCN(Cc2cccc(-c3ccc(CNCCc4ccccc4)cc3)c2)C(=O)Nc2ccccc2)CC1	830 nM
CCOc1cc(C(=O)N[C@@H](Cc2ccccc2)[C@H](O)CNC(C)(C)c2cccc(OC)c2)cc(N2CCCS2(=O)=O)c1	220 nM
CCN(CC)CCN(Cc1ccc(-c2ccc(C(F)(F)F)cc2)cc1)C(=O)Cn1c(CCc2cc(F)c(F)cc2F)nc(=O)c2ccccc21	720 nM
CC(C)(C)c1ccc2nc(-c3ccc(/C=C/C(=O)NCc4cccc(C(F)(F)F)c4)cc3)[nH]c2c1	990 nM
OCCN1CCN(c2ccc(Nc3ccnc4cc5ccccc5cc34)cc2)CC1	40 nM
CCCNC[C@@H](O)[C@H](Cc1ccccc1)NC(=O)c1cc2c3c(c1)c(CC)cn3CCS(=O)(=O)N2C	100 nM
O=C(Cc1cnc[nH]1)Nc1cccc(-c2cccc(-c3nc4ccc(C(F)(F)F)cc4[nH]3)c2)c1	230 nM
Clc1ccc2c(NN=Cc3ccco3)ccnc2c1	1100 nM
Cc1nc2ccc(-c3nc4ccc(N)cc4[nH]3)cc2[nH]1	230 nM
COc1ccc(CC2(c3ccc(F)cc3)N=C(N)N(CCCc3cccnc3)C2=O)cc1 (centres undefined)	670 nM
COc1ccc(-c2nonc2NC(=O)c2cccc(C)c2)cc1OC	810 nM
Cc1ccc2[nH]cc(C3CCN(CC4CCC(NC(=O)/C=C/c5ccc(Cl)c(Cl)c5)CC4)CC3)c2c1 (centres undefined)	840 nM and 550 nM

SMILES	IC50
CCN(CC)CCNc1nc(C=Cc2ccc(Cl)cc2)nc2cc3ccccc3cc12	150 nM
CC(C)(C)S[C@H]1S[C@H](SC(C)(C)C)[C@@H](OC(=O)c2ccccc2)C(OC(=O)c2ccccc2)[C@H]1OC(=O)c1ccccc1 (some centres undefined)	940 nM
COc1ccc2ncc(C)c(CCN3CCC(NCc4ccc5c(n4)NC(=O)CS5)CC3)c2c1	550 nM
COc1ccc(S(=O)(=O)Nc2cc(C)cc(Br)c2OC)cc1N1CCN(C(=O)C(Cl)(Cl)Cl)CC1	870 nM
Oc1ccc2[nH]cc(C3=CCN(CCc4ccccc4)CC3)c2c1	310 nM
C#CCCC(=O)Nc1cccc(-c2cccc(-c3nc4ccc(C(F)(F)F)cc4[nH]3)c2)c1	810 nM
CCCc1cc(NC2CCN(C)CC2)nc(Nc2ccc(C)cc2)n1	900 nM
COc1ccccc1CCCN1C(=O)C(c2ccccc2)(c2ccccc2)N=C1N	270 nM
Cc1nnsc1C(=O)Nc1cccc(-c2cccc(-c3nc4ccc(C(F)(F)F)cc4[nH]3)c2)c1	240 nM
CCN1CCC(N(Cc2ccc(-c3ccc(C(F)(F)F)s3)cc2)C(=O)Cn2c(CCc3cccc(F)c3F)nc(=O)c3ccccc32)CC1	930 nM
NC(=O)COc1c(C2CCN(CCN3CCC(CNC(=O)c4ccc(-c5ccc(C(F)(F)F)cc5)cc4)CC3)CC2)ccc2c1CCCC2	970 nM
COc1ccc(NC(=O)/C=C/c2ccccc2Cl)cc1OCCN1CCN(c2ccncc2)CC1	730 nM
O=C(Nc1ccc(F)c([N+](=O)[O-])c1)Nc1cc(C(F)(F)F)ccc1Cl	860 nM
Fc1ccc2nc(-c3ccc(-c4cccc(CN5CCCCC5)c4)cc3)[nH]c2c1	270 nM
Cc1cc(OCCCN2CCCCC2)ccc1NC(=O)COc1ccc(Cl)cc1C(=O)c1cc(C#N)cc(C(F)(F)F)c1	1030 nM
O=C(NCCCCNCC(Cc1cccc(O)c1)c1ccccc1)c1ccc(NC(=O)c2ccc(Cl)cc2)cc1 (centres undefined)	1040 nM
Cc1c(NC(=O)COc2ccc(Cl)cc2C(=O)c2cc(F)cc(C(F)(F)F)c2)ccc2ncsc12	1020 nM
Cc1cc(N[C@@H](Cc2ccccc2)C(=O)NCCCOC(C)C)nc(NCCc2ccc(F)cc2)n1	930 nM
Cc1cnc(CN(Cc2ccc(-c3ccc(CNCCc4ccc(S(C)(=O)=O)cc4)cn3)cc2)C(=O)c2ccc([N+](=O)[O-])c(C)c2)cn1	920 nM
CC(=O)Nc1ccc(OCCN(Cc2ccccc2C(F)(F)F)c2ccc(C#N)c(C(F)(F)F)c2)c(Cl)c1	620 nM
Fc1cccc(C=NNc2ccnc3cc(Cl)ccc23)c1	530 nM
Cc1ccc(S(=O)(=O)NC2CCN(CCNC(=O)Nc3cc(C)nc4ccccc34)C2)cc1 (centres undefined)	1040 nM
